# Data: patent publication US6576784B1, “Antiviral agents” (Yeda Research and Development Co. Ltd., priority 1993, dated 2003)
# Columns and labels:
# [1] = G. Lavie et al, J.N.Y. Acad. Sci. 616:556, 1990; cited from earlier work
# [2] = Quantum yield of singlet oxygen formation on irradiation in liposomes; assay type: physicochemical; conditions: for singlet oxygen formed on irradiation in liposomes (in words): irradiation with visible light, bound to liposomes; for Quantum yields of singlet oxygen (φΔ) formed on irradiation of hypericin analogs in liposomes: soya liposomes, DPBF, light of 420 nm
# [3] = test system: Murine Radiation Leukemia Virus (Rad LV); assay: Direct inactivation of murine radiation leukemia virus measured by inhibition of virus particle derived reverse transcriptase activity; assay type: biochemical; conditions: 0.01 μg/ml; virus incubated with compound on ice 30 min; FIG. 1
# Description: Determination of Antiretroviral Activity of Hypericin Analogs by Monitoring the Direct Inactivation of Murine Radiation Leukemia Virus (Rad LV) Measured by the Inhibition of Virus Particle Derived Reverse Transcriptase Activity
# Virus particles released into the growth medium of the AQR lymphoblastoid cell line which is infected with and producing RadLV, were exposed to hypericin and hypericin analogs. The virus and the substrate were incubated on ice for a period of 30 min., after which time the virus was precipitated by ultracentrifugation at 40,000 rpm for 1 hour in a Beckman ultracentrifuge, and analyzed for reverse transcriptase according to Stephenson et al., Virology 48:749 (1972). The results shown in FIG. 1 are expressed as counts per minute of tritiated-thymidine incorporation.
# [4] = test system: Murine Friend Virus; assay: Inhibition of Friend virus splenomegaly in BALB/c mice; assay type: in vivo; conditions: single intravenous dose within 1 hour of infection, FIG. 2
# Text: Antiretroviral Activity of Hypericin Analogs Against Murine Friend Virus in BALB/c Mice
# Mice infected with Friend virus (FV) develop a virus induced erythroleukemia whose early manifestation is a 4-8 time enlargement of the spleen size (splenomegaly) within 10 days after infection with the virus. Inhibition of splenomegaly can be used to quantitate the antiretroviral activity of various compounds in vivo. In this experiment, mice, in groups of 3, were infected with Friend virus and hypericin analogs (0.5 ml of solution in PBS) were then administered intravenously within 1 hour of the infection in a single dose of 1, 10, 50 and 150 μg per mouse.
# [5] = test system: non-enveloped viruses such as polio and rhino viruses; conditions: Tang et al., Antiviral Res. 13:313 (1990); cited from earlier work
compound,measurement,setting,value
"octahydroxy hypericin [R1, R2 = OH, reference compound]",antiviral activity (in words),[1],very weak antiviral activity
same,singlet oxygen formed on irradiation in liposomes (in words),[2],did not produce detectable yields of singlet oxygen
same,Quantum yields of singlet oxygen (φΔ) formed on irradiation of hypericin analogs in liposomes,[2],<0.01
n-butyl Ester Analog of Hypericin [Example 3],"antiviral activity (inhibition of virus particle derived reverse transcriptase activity, tritiated-thymidine incorporation)",[3],antiviral activity
same,inhibition of splenomegaly,[4]; 150 μg per mouse,70%
n-propyl Ester Analog of Hypericin [Example 2],inhibition of splenomegaly,[4]; 10 μg per mouse,47%
"Cc1cc(O)c2c(=O)c3c(O)cc(O)c4c5c(O)cc(O)c6c(=O)c7c(O)cc(C)c8c1c2c(c34)c(c78)c65 [hypericin, Hypericin, reference compound]",singlet oxygen formed on irradiation in liposomes (in words),[2],comparatively high
same,activity against non-enveloped viruses (in words),[5],not active
2-Methoxyethyl Ester Analog of Hypericin [Example 4],Quantum yields of singlet oxygen (φΔ) formed on irradiation of hypericin analogs in liposomes,[2],0.35
Methyl Ester Analog of Hypericin [Example 1],"antiviral activity (inhibition of virus particle derived reverse transcriptase activity, tritiated-thymidine incorporation)",[3],antiviral activity
same,inhibition of splenomegaly,[4]; 10 μg per mouse,65%
same,Quantum yields of singlet oxygen (φΔ) formed on irradiation of hypericin analogs in liposomes,[2],0.38
2-(2-Methoxyethoxy)ethyl Ester Analog of Hypericin [Example 5],Quantum yields of singlet oxygen (φΔ) formed on irradiation of hypericin analogs in liposomes,[2],0.1
